Measured values: article PMC12865225 (Clinical and Translational Science, 2026)
“And” between values parts separate entries of the source, which are not always exact repeats. Equal values may be shown once. Read-outs that look alike come from different tables or passages of the source. Marks after values point to notes of the source that are not given here. Each block holds one compound with its values, some of them ahead of it.

Legend:
[1] = tested on: T1, OAT2; test: OAT2 inhibition, methotrexate uptake into HEK293 cells; assay type: cell-based, human; details: 200 μM inhibitor, 34 nM methotrexate
T1 construct: expressed in transfected cells; host or cells: HEK293 (recombinant baculovirus-mediated transduction)
Method: The human transporters OATP1B1, OATP1B3, OATP2B1, and OAT1‐OAT4 and a negative control protein (enhanced yellow fluorescent protein, eYFP) were transiently expressed in human embryonic kidney 293 (HEK293) cells by recombinant baculovirus‐mediated transduction. Baculoviruses carrying human genes for the transporters were prepared as reported previously. HEK293 cells were cultured in DMEM containing 10% fetal bovine serum at 37°C and 5% CO2 and passaged two to three times per week. For the transport studies, 0.05 × 10^6 cells for 48‐well plates (OATPs) or 0.06 × 10^6 cells for 24‐well plates (OATs) were seeded onto cell‐culture treated well plates coated with poly‐D‐lysine. […]
(§1) In the OATP inhibition assays, inhibitors in warm TP‐buffer were directly applied to cells after media removal, followed by a 30‐min preincubation step in the presence of inhibitors. […] OAT1 and OAT3 cells were lysed with 200 μL of 1 M sodium hydroxide for 10 min, and 150 μL of these samples were transferred to a black well plate for fluorescein quantification. […]
(§2) For the inhibition data analysis, the average of measured concentrations in the control cells was subtracted from the average of measured concentrations in transporter‐expressing cells for each inhibitor concentration and then normalized to the vehicle sample that represents 100% transport activity. […]

[2] = cited from earlier work; for Total CL: mean value from IV studies
[3] = tested on: T2, MRP4; test: Efflux transport assay in MRP4 HEK293 membrane vesicles; assay type: biochemical, human; details: 5 and 50 µM, 10 min
T2 construct: expressed in transfected cells; host or cells: HEK293 cells

[4] = target: T3, OATP1B1 (Homo sapiens, UniProt Q9Y6L6); test: OATP1B1 inhibition, rosuvastatin uptake into transporter-expressing HEK293 cells; assay type: cell-based; details: for IC50: IC50 (95% CI), μM OATP1B1, 2.5 μM rosuvastatin, 2 min, 30 min preincubation; for Calculated R-value OATP1B1: R = 1 + (I in,max,u/IC50), FDA cut-off ≥ 1.1
T3 construct: expressed in transfected cells; host or cells: HEK293 (recombinant baculovirus-mediated transduction)
T3 sequence (Q9Y6L6 1-691): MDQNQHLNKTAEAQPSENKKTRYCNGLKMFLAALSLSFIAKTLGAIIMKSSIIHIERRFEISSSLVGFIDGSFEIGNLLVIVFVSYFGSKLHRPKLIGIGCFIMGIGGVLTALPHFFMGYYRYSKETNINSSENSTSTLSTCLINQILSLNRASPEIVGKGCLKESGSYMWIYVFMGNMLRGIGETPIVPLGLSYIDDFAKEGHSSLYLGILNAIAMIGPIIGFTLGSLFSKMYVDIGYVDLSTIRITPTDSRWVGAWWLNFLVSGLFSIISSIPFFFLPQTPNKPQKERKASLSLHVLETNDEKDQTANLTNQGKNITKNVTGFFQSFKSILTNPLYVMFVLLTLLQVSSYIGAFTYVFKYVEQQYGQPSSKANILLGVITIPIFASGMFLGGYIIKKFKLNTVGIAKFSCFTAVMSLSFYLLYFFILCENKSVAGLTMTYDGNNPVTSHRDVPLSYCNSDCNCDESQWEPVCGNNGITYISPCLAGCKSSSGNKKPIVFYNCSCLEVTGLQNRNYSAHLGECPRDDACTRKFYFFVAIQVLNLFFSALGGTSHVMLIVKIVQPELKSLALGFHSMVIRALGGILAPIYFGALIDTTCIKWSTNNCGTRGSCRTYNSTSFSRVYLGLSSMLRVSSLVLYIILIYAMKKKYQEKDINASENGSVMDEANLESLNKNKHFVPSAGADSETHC
Method: (§3) The human transporters OATP1B1, OATP1B3, OATP2B1, and OAT1‐OAT4 and a negative control protein (enhanced yellow fluorescent protein, eYFP) were transiently expressed in human embryonic kidney 293 (HEK293) cells by recombinant baculovirus‐mediated transduction. Baculoviruses carrying human genes for the transporters were prepared as reported previously. HEK293 cells were cultured in DMEM containing 10% fetal bovine serum at 37°C and 5% CO2 and passaged two to three times per week. For the transport studies, 0.05 × 10^6 cells for 48‐well plates (OATPs) or 0.06 × 10^6 cells for 24‐well plates (OATs) were seeded onto cell‐culture treated well plates coated with poly‐D‐lysine. After 1 day, cells were transduced to produce recombinant proteins by changing media to DMEM containing 30 μL (48‐well plates) or 60 μL (24‐well plates) of recombinant baculovirus and 3 mM (OATs) or 5 mM (OATPs) sodium butyrate in a total media volume of 500 μL. The cells were cultured for a further 2 days before the transport assays.
(§4) For the transport studies, media were removed and cells were washed once with warm transport uptake buffer (TP‐buffer—pH 7.4 HBSS with 25 mM HEPES and 4 mM sodium bicarbonate). Each experiment included triplicate (OATP) or duplicate (OAT) samples for every test condition. The uptake was started by removing liquid from wells and applying warm TP‐buffer (200 μL for 24‐well plates or 125 μL for 48‐well plates) containing a test compound to cells. Transport assays were terminated after a pre‐specified incubation time (reported in figure legends) by removing substrate solution and washing cells three times with cold TP‐buffer (300 μL for 48‐well plates and 400 μL for 24‐well plates). For the liquid chromatography mass spectrometry (LC–MS) analysis, compounds were extracted from cells with 125 μL (48‐well plates) or 250 μL (24‐well plates) of an ultrapure‐water solution containing 75% methanol and 0.1% formic acid, shaking at 250 RPM for 30 min. […] Samples were transferred to well plates, centrifuged at 3000 g for 30 min, and transferred to a new well plate for the analysis.
as §1, §2

[5] = target: T3, OATP1B1; test: Uptake transport assay in OATP1B1-expressing HEK293 cells; assay type: cell-based; details: for transport by OATP1B1: 2 and 50 μM, 10 min
Method: as §3, §4
Equation (2) (the Michaelis–Menten equation) was fit to the transport kinetic assay data. […] (2) Uptake=Vmax×S/Km+S

[6] = 6.25 mg/kg PO, ref Jusko et al. 1975 11
[7] = 250 mg IV, ref DeSante et al. 1980 7
[8] = 250 mg PO, ref Sutherland et al. 1970 10
[9] = 500 mg PO, ref Beringer et al. 2008 12
[10] = 500 mg PO, ref Gravenkemper et al. 1965 13
[11] = 500 mg PO, ref Røder et al. 1995 14
[12] = 750 mg PO, ref Røder et al. 1995 14
[13] = 1000 mg PO, ref Gravenkemper et al. 1965 13
[14] = 1000 mg PO, ref Putnam et al. 2005 9
[15] = 1000 mg PO, ref Røder et al. 1995 14
[16] = 125 mg PO, ref Sutherland et al. 1970 10
[17] = 250 mg PO, ref Bodey et al. 1972 20
[18] = 500 mg IV, ref Landersdorfer et al. 2007 15
[19] = 500 mg IV, ref Landersdorfer et al. 2008 17
[20] = 500 mg PO, ref Bodey et al. 1972 20
[21] = 1000 mg IV, ref Adam et al. 1983 18
[22] = 1000 mg IV, ref Landersdorfer et al. 2007 15
[23] = 1000 mg IV, ref Landersdorfer et al. 2008 17
[24] = 1000 mg IV, ref Wise et al. 1980 19
[25] = 1000 mg PO MD (day 9), ref Iversen et al. 2023 22
[26] = 1000 mg PO MD (day 27), ref Iversen et al. 2023 22
[27] = 1000 mg PO SD, ref Iversen et al. 2023 22
[28] = 1000 mg PO, ref Everts et al. 2020 16
[29] = 1000 mg PO, ref Gardiner et al. 2018 21

transport by MRP4 [3]: did not transport | IC50 [4]: 3.9 µM and 3.86 µM | Calculated R-value OATP1B1 [4]: 2.4 ^a | transport by OATP1B1 [5]: transported | Vmax (pmol/106 cells/min) OATP1B1 ([5]; uptake, 2 min): 15.9 pmol/106 cells/min
SMILES: Cc1onc(-c2c(Cl)cccc2Cl)c1C(=O)N[C@@H]1C(=O)N2[C@@H]1SC(C)(C)[C@@H]2C(=O)O [Dicloxacillin]
inhibition of OAT2-mediated transport of methotrexate [1]: neither compound substantially inhibited | AUC (mg*h/l) Obs [2, 6]: 33.8 mg·h/L | Cmax (mg/l) Obs [2, 6]: 18.4 mg/L | AUC (mg*h/l) Obs [2, 7]: 23.8 mg·h/L | Cmax (mg/l) Obs [2, 7]: 56.5 mg/L | AUC (mg*h/l) Obs [2, 8]: 19.1 mg·h/L | Cmax (mg/l) Obs [2, 8]: 11.0 mg/L | AUC (mg*h/l) Obs [2, 9]: 36.6 mg·h/L | Cmax (mg/l) Obs [2, 9]: 11.1 mg/L | AUC (mg*h/l) Obs [2, 10]: 41.1 mg·h/L | Cmax (mg/l) Obs [2, 10]: 17.4 mg/L | AUC (mg*h/l) Obs [2, 11]: 30.8 mg·h/L | Cmax (mg/l) Obs [2, 11]: 17.3 mg/L | AUC (mg*h/l) Obs [2, 12]: 66.8 mg·h/L | Cmax (mg/l) Obs [2, 12]: 34.4 mg/L | AUC (mg*h/l) Obs ([2]; 1000 mg IV, ref Nauta and Mattie 1976 8): 114 mg·h/L | AUC (mg*h/l) Obs [2, 13]: 72.4 mg·h/L | Cmax (mg/l) Obs [2, 13]: 28.9 mg/L | AUC (mg*h/l) Obs [2, 14]: 78.0 mg·h/L | Cmax (mg/l) Obs [2, 14]: 31.4 mg/L | AUC (mg*h/l) Obs [2, 15]: 82.5 mg·h/L | Cmax (mg/l) Obs [2, 15]: 30.7 mg/L | fraction absorbed, range reported ([2]; dicloxacillin capsules): 35 – 76% | Total CL [2]: 8.885 L/h

transport by MRP4 [3]: did not transport | IC50 [4]: 31 µM | Calculated R-value OATP1B1 [4]: 1.5 ^a | transport by OATP1B1 [5]: transported | Km ([5]; uptake, 2 min): 10 to 18 µM | Vmax (pmol/106 cells/min) OATP1B1 ([5]; uptake, 2 min): 23.5 pmol/106 cells/min
SMILES: Cc1onc(-c2c(F)cccc2Cl)c1C(=O)N[C@@H]1C(=O)N2[C@@H]1SC(C)(C)[C@@H]2C(=O)O [Flucloxacillin]
inhibition of OAT2-mediated transport of methotrexate [1]: neither compound substantially inhibited | AUC (mg*h/l) Obs [2, 16]: 8.28 mg·h/L | Cmax (mg/l) Obs [2, 16]: 5.8 mg/L | AUC (mg*h/l) Obs [2, 17]: 14.6 mg·h/L | Cmax (mg/l) Obs [2, 17]: 5.7 mg/L | AUC (mg*h/l) Obs [2, 8]: 14.4 mg·h/L | Cmax (mg/l) Obs [2, 8]: 11.0 mg/L | AUC (mg*h/l) Obs [2, 18]: 60.9 mg·h/L | Cmax (mg/l) Obs [2, 18]: 86.8 mg/L | AUC (mg*h/l) Obs [2, 19]: 54.8 mg·h/L | Cmax (mg/l) Obs [2, 19]: 87.7 mg/L | AUC (mg*h/l) Obs [2, 20]: 29.1 mg·h/L | Cmax (mg/l) Obs [2, 20]: 11.4 mg/L | Cmax (mg/l) Obs ([2]; 500 mg PO, ref Sutherland et al. 1970 10): 14.7 mg/L | AUC (mg*h/l) Obs [2, 12]: 67.8 mg·h/L | Cmax (mg/l) Obs [2, 12]: 34.5 mg/L | AUC (mg*h/l) Obs [2, 21]: 141 mg·h/L | Cmax (mg/l) Obs [2, 21]: 236 mg/L | AUC (mg*h/l) Obs [2, 22]: 122 mg·h/L | Cmax (mg/l) Obs [2, 22]: 167 mg/L | AUC (mg*h/l) Obs [2, 23]: 113 mg·h/L | Cmax (mg/l) Obs [2, 23]: 173 mg/L | AUC (mg*h/l) Obs [2, 24]: 73.6 mg·h/L | Cmax (mg/l) Obs [2, 24]: 140 mg/L | AUC (mg*h/l) Obs [2, 25]: 56 mg·h/L | Cmax (mg/l) Obs [2, 25]: 20 mg/L | AUC (mg*h/l) Obs [2, 26]: 64 mg·h/L | Cmax (mg/l) Obs [2, 26]: 24 mg/L | AUC (mg*h/l) Obs [2, 27]: 51 mg·h/L | Cmax (mg/l) Obs [2, 27]: 21 mg/L | AUC (mg*h/l) Obs [2, 28]: 82 mg·h/L | Cmax (mg/l) Obs [2, 28]: 31 mg/L | AUC (mg*h/l) Obs [2, 29]: 71.6 mg·h/L | Cmax (mg/l) Obs [2, 29]: 27.4 mg/L | ka reported range [2]: 0.17 to 18.2 h⁻¹ | CLR ([2]; mean from reported IV studies): 5.1 L/h | Total CL [2]: 7.75 L/h
